Assay results reported in US10273228B2, “Hepatitis B viral assembly effectors” (Indiana University Research and Technology Corporation, priority 2015, dated 2019).
Where two headings read alike, the source gives them in different places.

Key:
AD38 cells = experiment: AD38 viability normalized to DMSO control; assay type: cell-based; conditions: 10 μM compound, vs DMSO control
Method: AD38 cells were then re-suspended with 10 mL of treatment medium and counted. Wells of a collagen coated 96-well NUNC microtiter plate were seeded at 50,000/well in 180 μL of treatment medium, and 20 μL of either 10% DMSO (Control) or a 10× solution of test compound in 10% DMSO in treatment media was added for a final compound concentration 1, 3, or 10 μM (1.0% final [DMSO]) and plates were incubated for 6 days at 37° C.

[1] = tested on: HBV viral load, AD38 cells; experiment: Activity of test compounds on viral production from AD38 cells (viral load by quantitative PCR of the core sequence in supernatant); assay type: cell-based, Hepatitis B virus; conditions: 10 μM compound, 6 days at 37° C., vs DMSO control wells; for activity at 10 µM: Hepatitis B virus, 144 h, read-out: AD38 Viral Load (CpAM/DMSO %) at 10 μM
In short: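 Cells seeded at 50,000/well on collagen-coated plates and exposed for 6 days at 37 °C to compound at 1, 3 or 10 μM final (1.0% DMSO). Supernatant viral DNA measured by TaqMan qPCR of the core sequence against known standards, compared with DMSO control wells.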

COc1ccc(S(=O)(=O)N2CCN(c3nc(Nc4ccc(C)cc4)cc(N4CCN(C)CC4)n3)CC2)cc1 [Compound 1207]
AD38 Viability Normalized Result (CPAM/DMSO %) at 10 μM (AD38 cells; Table 6): 0% | activity at 10 µM ([1]; Table 6): 83%

COc1ccc(S(=O)(=O)N2CCN(c3nc(C)cc(Nc4ccccn4)n3)CC2)cc1 [Compound 1215]
AD38 Viability Normalized Result (CPAM/DMSO %) at 10 μM (AD38 cells; Table 6): 89% | activity at 10 µM ([1]; Table 6): 93%

O=S(=O)(c1ccc(OCCN2CCOCC2)cc1)N1CCN(c2nc(Nc3ccc(F)cc3)cc(C(F)(F)F)n2)CC1 [Compound 1390, N-(4-fluorophenyl)-2-(4-((4-(2-morpholinoethoxy)phenyl)sulfonyl)piperazin-1-yl)-6-(trifluoromethyl) pyrimidin-4-amine]
AD38 Viability Normalized Result (CPAM/DMSO %) at 10 μM (AD38 cells; Table 9): 104% | activity at 10 µM ([1]; Table 9): 1%

O=S(=O)(c1cccc(C(F)(F)F)c1)N1CCN(c2nc(Oc3ccc(F)cc3)cc(-n3cnnc3)n2)CC1 [Compound 1309]
AD38 Viability Normalized Result (CPAM/DMSO %) at 10 μM (AD38 cells; Table 6): 67% | activity at 10 µM ([1]; Table 6): 26%

CCCOc1ccc(S(=O)(=O)N2CCN(c3nc(Nc4ccc(F)cc4)cc(C(F)(F)F)n3)CC2)cc1 [Compound 1400]
AD38 Viability Normalized Result (CPAM/DMSO %) at 10 μM (AD38 cells; Table 9): 93% | activity at 10 µM ([1]; Table 9): 73%

O=S(=O)(c1ccc(F)cc1)N1CCN(c2nc(Nc3ccc(F)cc3)cc(-c3nccs3)n2)CC1 [Compound 1375]
AD38 Viability Normalized Result (CPAM/DMSO %) at 10 μM (AD38 cells; Table 9): 104% | AD38 Viral Load (CpAM/DMSO %) at 10 μM ([1]; Table 9): 43%

COc1ccc(S(=O)(=O)N2CCN(c3nc(NCCN(C)C)cc(Nc4ccc(C)cc4)n3)CC2)cc1 [Compound 1251]
AD38 Viability Normalized Result (CPAM/DMSO %) at 10 μM (AD38 cells; Table 6): 56% | activity at 10 µM ([1]; Table 6): 60%

O=S(=O)(c1ccc(OC(F)(F)F)cc1)N1CCN(c2nc(Nc3ccccn3)cc(C(F)(F)F)n2)CC1 [Compound 1415]
AD38 Viability Normalized Result (CPAM/DMSO %) at 10 μM (AD38 cells; Table 9): 101% | activity at 10 µM ([1]; Table 9): 120%

Cc1ccc(S(=O)(=O)N2CCN(c3nc(Oc4ccc(F)cc4)cc(-n4cnnc4)n3)CC2)cc1 [Compound 1310]
AD38 Viability Normalized Result (CPAM/DMSO %) at 10 μM (AD38 cells; Table 6): 81% | activity at 10 µM ([1]; Table 6): 50%

CN(C)c1cc(Nc2ccc(F)cc2)nc(N2CCN(S(=O)(=O)c3ccccc3)CC2)n1 [Compound 1304]
AD38 Viability Normalized Result (CPAM/DMSO %) at 10 μM (AD38 cells; Table 6): 113% | activity at 10 µM ([1]; Table 6): 48%

C[C@@H](Oc1ccc(S(=O)(=O)N2CCN(c3nc(Nc4ccc(F)cc4)cc(C(F)(F)F)n3)CC2)cc1)C(=O)O [Compound 1409, (R)-2-(4-((4-(4-((4-fluorophenyl)amino)-6-(trifluoromethyl)pyrimidin-2-yl)piperazin-1-yl)sulfonyl)phenoxy) propanoic acid]
AD38 Viability Normalized Result (CPAM/DMSO %) at 10 μM (AD38 cells; Table 9): 108% | activity at 10 µM ([1]; Table 9): 59%

O=S(=O)(c1ccccc1)N1CCN(c2nc(Nc3ccc(F)cc3)cc(C(F)(F)F)n2)CC1 [Compound 1343]
AD38 Viability Normalized Result (CPAM/DMSO %) at 10 μM (AD38 cells; Table 9): 31% | activity at 10 µM ([1]; Table 9): 6%

CC(C)(Oc1ccc(S(=O)(=O)N2CCN(c3nc(Nc4ccc(F)cc4)cc(C(F)(F)F)n3)CC2)cc1)C(=O)O [Compound 1405, 2-(4-((4-(4-((4-fluorophenyl)amino)-6-(trifluoromethyl)pyrimidin-2-yl)piperazin-1-yl)sulfonyl)phenoxy)-2-methylpropanoic acid]
AD38 Viability Normalized Result (CPAM/DMSO %) at 10 μM (AD38 cells; Table 9): 84% | activity at 10 µM ([1]; Table 9): 28%

O=C(O)COc1ccc(S(=O)(=O)N2CCN(c3nc(Nc4ccc(F)cc4)cc(C(F)(F)F)n3)CC2)cc1 [Compound 1399, 2-(4-((4-(4-((4-fluorophenyl)amino)-6-(trifluoromethyl)pyrimidin-2-yl)piperazin-1-yl)sulfonyl)phenoxy) acetic acid]
AD38 Viability Normalized Result (CPAM/DMSO %) at 10 μM (AD38 cells; Table 9): 93% | activity at 10 µM ([1]; Table 9): 43%

CN(C)c1cc(Oc2ccc(F)cc2)nc(N2CCN(S(=O)(=O)c3ccc(C(F)(F)F)cc3)CC2)n1 [Compound 1298]
AD38 Viability Normalized Result (CPAM/DMSO %) at 10 μM (AD38 cells; Table 6): 97% | activity at 10 µM ([1]; Table 6): 100%

COc1ccc(S(=O)(=O)N2CCN(c3nc(Nc4ccc(C)cc4)cc(-n4nccn4)n3)CC2)cc1 [Compound 1247]
AD38 Viability Normalized Result (CPAM/DMSO %) at 10 μM (AD38 cells; Table 6): 98% | activity at 10 µM ([1]; Table 6): 6%

Cc1cc(Nc2ccc(F)cc2)nc(N2CCN(S(=O)(=O)c3ccc(O[C@H](C)C(=O)O)cc3)CC2)n1 [Compound 1395, (R)-2-(4-((4-(4-((4-fluorophenyl)amino)-6-methylpyrimidin-2-yl)piperazin-1-yl)sulfonyl)phenoxy) propanoic acid]
AD38 Viability Normalized Result (CPAM/DMSO %) at 10 μM (AD38 cells; Table 9): 98% | activity at 10 µM ([1]; Table 9): 42%

O=S(=O)(c1ccc(F)cc1)N1CCN(c2nc(Nc3ccc(F)cc3)cc(-n3cnnc3)n2)CC1 [Compound 1312]
AD38 Viability Normalized Result (CPAM/DMSO %) at 10 μM (AD38 cells; Table 6): 96% | activity at 10 µM ([1]; Table 6): 31%

Cc1ccc(S(=O)(=O)N2CCN(c3nc(C)cc(Nc4ccc(F)cc4)n3)CC2)cc1 [Compound 1339]
AD38 Viability Normalized Result (CPAM/DMSO %) at 10 μM (AD38 cells; Table 9): 93% | activity at 10 µM ([1]; Table 9): 50%

CCOc1ccc(S(=O)(=O)N2CCN(c3nc(Nc4ccc(C#N)cc4)cc(-c4cncs4)n3)CC2)cc1 [Compound 1373]
AD38 Viability Normalized Result (CPAM/DMSO %) at 10 μM (AD38 cells; Table 9): 109% | activity at 10 µM ([1]; Table 9): 8%

COC(=O)c1ccc(S(=O)(=O)N2CCN(c3nc(Nc4ccc(F)cc4)cc(C(F)(F)F)n3)CC2)cc1 [Compound 1386]
AD38 Viability Normalized Result (CPAM/DMSO %) at 10 μM (AD38 cells; Table 9): 118% | activity at 10 µM ([1]; Table 9): 23%

COc1ccc(S(=O)(=O)N2CCN(c3nc(C)cc(Nc4ccc(C)cn4)n3)CC2)cc1 [Compound 1200]
AD38 Viability Normalized Result (CPAM/DMSO %) at 10 μM (AD38 cells; Table 6): 98% | activity at 10 µM ([1]; Table 6): 81%
